Like-named read-outs stand apart in the source and are kept apart here.
Tests used:
[1] = 65Zn2+ binding to immobilized peptide (dot-blot, Scatchard competition analysis); settings: for zinc binding (in words): dot-blot or blot of tryptic digest probed with ^65Zn^2+
Protocol: ^65Zn^2+ Binding Studies—Dissolved peptides (1.2 nMol, unless other wise stated) were dot-blotted onto polyvinylidene difluoride membrane (0.2-μm pore size; Pierce Chemical Co.), washed twice with chelating buffer (200 μl×100 mM NaCl, 20 mM Tris-HCl, 1 mM EDTA, pH 7.4), then five times with blocking buffer (200 μl×100 mM NaCl, 20 mM Tris-HCl, 1 mM MnCl2, pH 7.4), and then incubated (60 min, 20° C.) with ^65Zn (unless otherwise stated 130,000 cpm, […] ^65ZnCl2 in 200 μl of blocking buffer±competing metal ion chloride). The dot-blot was then washed with blocking buffer (5×200 μl), the dot excised, placed in a test tube, and assayed by γ-counting (11% efficiency). The equilibration volume for stoichiometry estimates was regarded as 6×200 μl. The 214 nm UV absorbance of the unbound flow-through was assayed to determine the total amount of peptide remaining bound onto the membrane. […] To alter the pH, the ^65Zn incubation was carried out in the presence of 100 mM buffer: MOPS (pH 6.5-7.0), MES (pH 5.0-6.0), acetate (pH 3.5-4.5). The dot-blot apparatus was washed with detergent and EDTA (50 mM) then rinsed and siliconized between use.
Aliquots of Aβ were incubated (60 min) with ^65Zn^2+ in the presence of varying concentrations of unlabeled Zn^2+ (0.01-50 μM total). Values shown are means±S.D., n≧3. […] (FIG. 1b) depicts specificity of the Zn^2+ binding site for various metals. Aβ was incubated (60 min) with ^65 Zn^2+ (157 nM, 138,000 cpm) and competing unlabeled metal ions (50 μM total). […] Percent binding of total counts ^65Zn^2+/min added is corrected for the amounts (in nanomoles) of peptides adhering to the membrane. […] 157 nM ^65Zn (138,000 cpm) is used in this experiment to probe immobilized peptide (1.6 nmol).

Aβ = biological target: T1, Aβ (Homo sapiens, UniProt P05067); assay: G50 gel filtration chromatography of Aβ in presence of metal ions or EDTA; settings: metal ion 25 μM
T1 construct: purchased Sigma; Bachem (results also replicated with peptide from the Keck Laboratory, Yale); host or cells: chemical synthesis
Protocol: Aβ was stored in aliquots of 0.52 mg/ml in water at −20° C., then kept at 4° C. when thawed. Reagents were mixed without vortex mixing. The incubated Aβ was directly applied to a G50 SF (Pharmacia, Uppsala, Sweden) column (Bio-Rad Econo-Column, 30×0.7 cm) pre-equilibrated with metal salt solution or EDTA (50 μM) in TBS at 20° C. and eluted at 8 ml/h (Wiz peristaltic pump, Isco, Lincoln, Nebr.). Absorbance was measured at 254 and 214 nm (Type 6 optical unit, Isco). The amount of Aβ eluting at various peaks was estimated from the area under the curve. […] Because the sample eluted in a volume of approximately 15 ml, the average concentration of the peptide on the column was 0.8 μM.
To study the effects of protein blocking upon adsorption of β to the chromatography column, a Sephadex G50 SF column which had been characterized previously for Aβ behavior was eluted with 3% bovine serum albumin (BSA) in TBS (50 ml) and equilibrated with non-BSA-containing buffer, subsequent to repeating the Aβ experiments.
The elution points of molecular mass standards and relative assignments of Aβ peak elutions are indicated. Mass standards were blue dextran (2×10^6 kDa, V0=void volume), BSA (66 kDa), carbonic anhydrase (29 kDa), cytochrome c (12.4 kDa), and aprotinin (6.5 kDa). The mass of Aβ is 4.3 kDa. […] Data for experiments performed in the presence of copper were taken from 214 nm readings and corrected for comparison.

[2] = 65Zn2+ binding to immobilized peptide (dot-blot, Scatchard competition analysis); settings: 74 nM ^65Zn^2+, corrected for peptide on membrane
trypsin = assay: Tryptic digestion of Aβ after incubation with Zn2+; type: biochemical; settings: increasing zinc concentrations
Protocol: Tryptic Digestion of Aβ-Aβ1-40 (13.9 μg) was incubated with Zn^2+ ([…] in blocking buffer, 1 h, 37° C.) and then digested with trypsin (12 ng, 3 h, 37° C.). The reaction was stopped by adding SDS sample buffer containing phenylmethylsulfonyl fluoride (1 mM), boiling the samples (5 min), and applying the samples to Tris/Tricine gel electrophoresis and transfer. The blot was washed with EDTA, Coomassie-stained, incubated with ^65Zn^2+, individual bands were excised, assayed for ^65Zn^2+ binding, and N-terminal sequenced to confirm the identity of the digestion products. The effects of Zn^2+ (up to 100 μM in TBS) on the activity of trypsin, itself, were assayed by assay of Z-Arg-amido-4-methylcoumarin (Sigma) fluorescent cleavage product and determined to be negligible.
(FIG. 4a) depicts a blot of tryptic digests of Aβ (13.9 μg) after incubation with increasing concentrations of zinc (lane labels, in micromolar), stained by Coomassie Blue. […] The migration of the low molecular size markers (STD) are indicated (in kilodaltons) on the right. (FIG. 4b) depicts ^65Zn^2+ binding to Aβ tryptic digestion products. The blot in 4a was incubated with ^65Zn^2+, the visible bands excised, and the bound counts for each band determined.

[3] = not given; remark: listed apart in the source
[4] = Zinc-induced tinctorial amyloid formation (Congo Red, polarized light); type: physicochemical; settings: Congo Red
Protocol: FIGS. 8a and 8b are photographs showing zinc-induced tinctorial amyloid formation. […] The particle diameter is 40μ. […] The experiment was repeated with EDTA (50 μM) substituted for Zn^2+ and yielded no visible material.
The particle diameter is 40μ. […] The experiment was repeated with EDTA (50 μM) substituted for Zn^2+ and yielded no visible material.

T1 sequence (P05067 672-711): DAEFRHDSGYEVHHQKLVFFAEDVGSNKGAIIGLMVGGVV

## 25-35: Aβ fragment covering a region of the carboxyl terminus, residues 25-35 (GSNKGAIIGLM; Amyloid-beta protein 40; UniProt P05067 696-706, looked up, fragment)
[1]
  zinc binding (in words): unable to bind zinc

## [Ag+2] [Ag^2+]
Aβ
  reduction in eluted peptide: 60%

## [Al+3] [Al^3+]
Aβ
  total Zn^2+ concentration with similar or comparable effect on Aβ chromatography: ~3 µM

## [Ba+2] [Ba^2+]
Aβ
  reduction in eluted peptide: 60%

## [Ca+2] [Ca^2+]
Aβ
  reduction in eluted peptide: 60%

## [Co+2] [Co^2+]
Aβ
  total Zn^2+ concentration with similar or comparable effect on Aβ chromatography: ~10 µM

## [Cu+2] [Cu^2+, copper]
Aβ
  effect on eluted Aβ species (monomer, dimer, polymer): dramatic increase in Aβ dimerization

## [Fe+2] [Fe^2+]
Aβ
  total Zn^2+ concentration with similar or comparable effect on Aβ chromatography: ~10 µM

## [Mg+2] [Mg^2+]
Aβ
  reduction in eluted peptide: 60%

## [Ni+2] [Ni^2+]
Aβ
  total Zn^2+ concentration with similar or comparable effect on Aβ chromatography: ~10 µM

## [Pb+2] [Pb^2+]
Aβ
  effect on eluted Aβ species (monomer, dimer, polymer): most strongly promotes the elution of the monomeric peptide, abolishing high order polymers
  total Zn^2+ concentration with similar or comparable effect on Aβ chromatography: ~0.4 µM

## NC(CO)(CO)CO [Tris]
[1]; Tris 150 mM
  abolition of ^65Zn^2+ binding to Aβ: ≈ 50%
[1]; Tris 500 mM
  abolition of ^65Zn^2+ binding to Aβ: ≈ 95%

## Aβ1-28: fragment of Aβ, residues 1-28
[1]
  zinc binding (in words): clearly binds zinc
[2]
  ^65Zn^2+ binding compared with Aβ1-40: 30 % of Bmax

## Aβ6-40: 3.6 kDa tryptic digestion product of Aβ1-40
[1]
  zinc binding (in words): binds zinc
trypsin
  effect of zinc on rate of tryptic digestion of the peptide: is inhibited by the presence of zinc

## Aβ17-40: 2.1 kDa tryptic digestion product of Aβ1-40, equivalent to post-secretase carboxyl-terminal product (LVFFAEDVGSNKGAIIGLMVGGVV; Amyloid-beta protein 40; UniProt P05067 688-711, looked up, fragment)
[1]
  zinc binding (in words): does not bind zinc
trypsin
  effect of zinc on rate of tryptic digestion of the peptide: is not inhibited by increasing zinc concentrations

## gln11: Aβ1-28 where residue 11 is glutamine (DAEFRHDSGYQVHHQKLVFFAEDVGSNK; Amyloid-beta protein 40; UniProt P05067 672-699, looked up, variant E11Q)
[1]
  zinc binding (in words): does not interfere with ^65Zn^2+ binding

## rat Aβ1-40: rat/mouse species of Aβ1-40; Arg→Gly, Tyr→Phe, His→Arg at positions 5, 10 and 13 (DAEFGHDSGFEVRHQKLVFFAEDVGSNKGAIIGLMVGGVV; Amyloid-beta protein 40; UniProt P08592 672-711, looked up)
EDTA, higher peptide concentrations
  peptide aggregated into >0.2μ particles: ≈ 15%
EDTA, peptide 0.8 μM
  peptide aggregated into >0.2μ particles: no detectable aggregation
Zn^2+ 25 μM, peptide 0.8 μM
  peptide aggregated into >0.2μ particles: no aggregation
Zn^2+ 25 μM, peptide 4 μM
  peptide aggregated into >0.2μ particles: 25%
Peptide 1.6 μM
  zinc concentration at which aggregation was observed: 25 µM
  zinc concentration up to which the peptide remains stable: up to 10 μM
[3]; EDTA, peptide 1.6 μM
  proportion of particles >0.1μ: 36%
  proportion of particles >0.22μ: 27%
  proportion of particles >0.65μ: 25%
[3]; Zn^2+ 25 μM vs EDTA
  increase of proportion of >0.1μ particles following incubation with Zn^2+: 20%
  increase of proportion of >0.22μ particles following incubation with Zn^2+: 30%
[3]; Zn^2+ 25 μM, peptide 1.6 μM
  proportion of particles >0.65μ: increased only slightly
[4]
  Zn^2+ concentration inducing amyloid by tinctorial criteria: ≥ 10 µM

Source: US6890727B2, “Diagnostic assay for Alzheimer's disease: assessment of Aβ abnormalities” (The General Hospital Corporation, priority 1994, dated 2005)
